Experimental data taken from US20010047090A1, “VANILREP1 polynucleotides and VANILREP1 polypeptides” (priority 1998, published 2001).

Legend:
VANILREP1 [1] = target: T1, VANILREP1 (Homo sapiens, UniProt Q8NER1); assay: Two-electrode voltage-clamp recordings in Xenopus laevis oocytes injected with VANILREP1 cDNA; format: cell-based; conditions: oocytes expressing VANILREP1, held at −60mV; capsaicin over a range of concentrations; FIG. 1
T1 construct: expressed in transfected cells; host or cells: Xenopus laevis oocytes (nuclear injection of cDNA)
T1 sequence (Q8NER1 whole entry M315I/K571I/M572C): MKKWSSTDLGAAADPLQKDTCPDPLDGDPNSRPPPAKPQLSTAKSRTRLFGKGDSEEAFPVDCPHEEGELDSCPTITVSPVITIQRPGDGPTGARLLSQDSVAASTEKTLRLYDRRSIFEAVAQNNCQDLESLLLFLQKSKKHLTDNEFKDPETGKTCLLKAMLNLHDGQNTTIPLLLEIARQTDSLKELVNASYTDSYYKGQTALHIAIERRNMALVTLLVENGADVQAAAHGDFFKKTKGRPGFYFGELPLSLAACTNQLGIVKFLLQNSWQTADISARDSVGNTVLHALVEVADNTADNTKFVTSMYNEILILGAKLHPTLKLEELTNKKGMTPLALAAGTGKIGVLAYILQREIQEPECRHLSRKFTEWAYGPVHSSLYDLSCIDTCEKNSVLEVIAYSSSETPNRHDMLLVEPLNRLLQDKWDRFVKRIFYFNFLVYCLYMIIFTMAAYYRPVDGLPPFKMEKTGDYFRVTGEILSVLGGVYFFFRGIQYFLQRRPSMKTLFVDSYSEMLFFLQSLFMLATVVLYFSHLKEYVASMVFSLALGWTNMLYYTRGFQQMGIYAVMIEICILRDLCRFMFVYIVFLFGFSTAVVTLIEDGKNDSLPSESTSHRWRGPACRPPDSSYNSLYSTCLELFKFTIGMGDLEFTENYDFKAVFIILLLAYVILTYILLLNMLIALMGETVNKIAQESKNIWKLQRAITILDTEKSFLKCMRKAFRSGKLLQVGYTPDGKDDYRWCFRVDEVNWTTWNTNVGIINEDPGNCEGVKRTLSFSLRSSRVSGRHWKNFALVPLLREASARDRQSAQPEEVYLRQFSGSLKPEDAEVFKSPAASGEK
Protocol: (§1) Xenopus laevis oocyte removal and dissociation were performed. Injections of cDNA for […]1 were made into the nuclei of defolliculated oocytes (1.5ng cDNA/oocyte). After injection the oocytes were incubated between 19-22° C. in modified Barth's solution (MBS) plus gentamycin (0.1mg/ml, pH 7.4) and used for electrophysiological recordings within 2-4 days.
(§2) For electrophysiological recordings oocytes were placed in a recording chamber and continuously perfused with a solution containing in mM: NaCl 88, KCI 1, NaHCO3 2.4, HEPES 15, MgCI2 1, BaCI2 0.1. (14 ml min^−1). Solution was applied using large bore tubing (internal diameter 1.5mm) which facilitated rapid solution exchange half-time 350 -1000 ms). Oocytes were held under voltage clamp at −60mV using the two-electrode voltage-clamp technique. Electrodes were low resistance (0.5-3 MΩ) and were filled with 3 M KCI.
(§3) Currents were evoked in response to application of capsaicin applied through the perfusion system until the maximum current amplitude was reached.

VANILREP1 [2] = target: T2, VANILREP1 (Homo sapiens, UniProt Q8NER1, K571I/M315I/M572C); assay: as above; format: cell-based
T2 construct: expressed in transfected cells; host or cells: Xenopus laevis oocytes (nuclear injection of cDNA)
T2 sequence (Q8NER1 whole entry M315I/K571I/M572C): as above
Protocol: as §1, §2, §3

| currents evoked in response to application of capsaicin (VANILREP1 [1]) | inhibition of the capsaicin evoked response (VANILREP1 [2]; capsazepine 10uM against capsaicin 1uM, oocytes expressing VANILREP1, FIG. 2) | reversibility of the inhibition of the capsaicin evoked response (VANILREP1 [2]; capsazepine 10uM, capsaicin 1uM, extended washing) | SMILES |
| --- | --- | --- | --- |
| currents evoked | – | – | COc1cc(CNC(=O)CCCC/C=C/C(C)C)ccc1O [capsaicin] |
| – | inhibition | reversible with extended washing | Oc1cc2c(cc1O)CN(C(=S)NCCc1ccc(Cl)cc1)CCC2 [capsazepine] |
